Several values for one entry are separate records, joined by “and”; a condition that tells them apart may be missing. Equal entries are not always repeated. Inconclusive results and toxic doses are left out. Rule as the data show it: active = T/C of 150% or more; inactive = T/C below 125%.
System: L1210 leukemia ip in BDF1 mice, survival T/C
Experiment: NCI In Vivo Anticancer Drug Screen. Data for tumor model L1210 Leukemia (intraperitoneal) in B6D2F1 (BDF1) mice
Settings: endpoint: mean survival time, higher = longer survival
Summary of the method: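 Transplanted-tumor mice were given test agent; controls received vehicle only. Survival readings from the two groups were divided (treated over control).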

[1] = dose: 100.0 mg/kg/injection, schedule: Q01DX009 (ip), vehicle: saline
[2] = dose: 100.0 mg/kg/injection, schedule: Q04DX003 (ip), vehicle: saline
[3] = dose: 200.0 mg/kg/injection, schedule: Q04DX003 (ip), vehicle: saline
[4] = dose: 400.0 mg/kg/injection, schedule: Q04DX003 (ip), vehicle: saline
[5] = dose: 100.0 mg/kg/injection, schedule: Q04DX002 (ip), vehicle: Klucel (hydroxypropylcellulose) (HPC)
[6] = dose: 100.0 mg/kg/injection, schedule: Q01DX009 (ip), vehicle: Klucel (hydroxypropylcellulose) (HPC)
[7] = dose: 200.0 mg/kg/injection, schedule: Q01DX009 (ip), vehicle: Klucel (hydroxypropylcellulose) (HPC)
[8] = dose: 400.0 mg/kg/injection, schedule: Q01DX009 (ip), vehicle: Klucel (hydroxypropylcellulose) (HPC)
[9] = dose: 100.0 mg/kg/injection, schedule: Q01DX001 (ip), vehicle: saline
[10] = dose: 200.0 mg/kg/injection, schedule: Q01DX001 (ip), vehicle: saline
[11] = dose: 50.0 mg/kg/injection, schedule: Q04DX003 (ip), vehicle: saline

Measured: T/C

CC(=O)[C@H]1CC[C@H]2[C@@H]3CCC4=CC(=O)[C@H](C)C[C@]4(C)[C@@]3(F)C(=O)C[C@]12C
inactive: dose: 15.0 mg/kg/injection, schedule: Q01DX Z (sc), vehicle: steriod suspending solution 98 % of control | dose: 30.0 mg/kg/injection, schedule: Q01DX Z (sc), vehicle: steriod suspending solution 96 % of control | dose: 60.0 mg/kg/injection, schedule: Q01DX Z (sc), vehicle: steriod suspending solution 101 % of control and 113 % of control | dose: 100.0 mg/kg/injection, schedule: Q01DX009 (sc), vehicle: steriod suspending solution 116 % of control | dose: 100.0 mg/kg/injection, schedule: Q04DX003 (sc), vehicle: steriod suspending solution 98 % of control | dose: 120.0 mg/kg/injection, schedule: Q01DX Z (sc), vehicle: steriod suspending solution 105 % of control | dose: 200.0 mg/kg/injection, schedule: Q01DX009 (sc), vehicle: steriod suspending solution 110 % of control | dose: 200.0 mg/kg/injection, schedule: Q04DX003 (sc), vehicle: steriod suspending solution 98 % of control | dose: 240.0 mg/kg/injection, schedule: Q01DX Z (sc), vehicle: steriod suspending solution 103 % of control | dose: 400.0 mg/kg/injection, schedule: Q01DX009 (sc), vehicle: steriod suspending solution 111 % of control | dose: 400.0 mg/kg/injection, schedule: Q04DX003 (sc), vehicle: steriod suspending solution 98 % of control

CCCn1c(=S)[nH]c2ccccc2c1=O
inactive: [1] 95 % of control | [2] 88 % of control | dose: 200.0 mg/kg/injection, schedule: Q01DX009 (ip), vehicle: saline 107 % of control | [3] 86 % of control | dose: 400.0 mg/kg/injection, schedule: Q01DX009 (ip), vehicle: saline 101 % of control | [4] 96 % of control

C#CC1(NC(=S)Nc2ccc(C)cc2)CCCCC1
inactive: dose: 100.0 mg/kg/injection, schedule: Q01DX009 (ip), vehicle: carboxymethylcellulose (CMC) 100 % of control and 92 % of control | dose: 200.0 mg/kg/injection, schedule: Q01DX009 (ip), vehicle: carboxymethylcellulose (CMC) 95 % of control and 100 % of control | dose: 400.0 mg/kg/injection, schedule: Q01DX009 (ip), vehicle: carboxymethylcellulose (CMC) 106 % of control and 113 % of control

Nc1ncnc2c1ncn2C1OC(CO)C(NC(=S)SCc2ccccc2)C1O (centres undefined)
inactive: dose: 75.0 mg/kg/injection, schedule: Q01DX001 (ip), vehicle: saline 101 % of control | dose: 150.0 mg/kg/injection, schedule: Q01DX001 (ip), vehicle: saline 87 % of control | dose: 300.0 mg/kg/injection, schedule: Q01DX001 (ip), vehicle: saline 101 % of control

NC(CSCC(N)=NCC1C2CC3CC(C2)CC1C3)=NCC1C2CC3CC(C2)CC1C3 (centres undefined)
inactive: [5] 96 % of control

CCCCCCCCCCCCCCNC1=C(OC)C(=O)C(NCCCCCCCCCCCCCC)=C(OC)C1=O
inactive: dose: 100.0 mg/kg/injection, schedule: Q01DX001 (ip), vehicle: other 95 % of control | dose: 200.0 mg/kg/injection, schedule: Q01DX001 (ip), vehicle: other 104 % of control | dose: 400.0 mg/kg/injection, schedule: Q01DX001 (ip), vehicle: other 90 % of control

CCc1ccccc1NC(=O)N(Cc1ccccc1)Cc1ccccc1
inactive: [6] 101 % of control | [7] 97 % of control | [8] 96 % of control

C/C=C/c1ccc(O)c(OC)c1
inactive: dose: 100.0 mg/kg/injection, schedule: Q04DX002 (ip), vehicle: saline with Tween-80 92 % of control | dose: 200.0 mg/kg/injection, schedule: Q04DX002 (ip), vehicle: saline with Tween-80 86 % of control | dose: 400.0 mg/kg/injection, schedule: Q04DX002 (ip), vehicle: saline with Tween-80 86 % of control

NN(CC1=COc2ccccc2O1)Cc1ccccc1
inactive: dose: 25.0 mg/kg/injection, schedule: Q01DX009 (ip), vehicle: Klucel (hydroxypropylcellulose) (HPC) 100 % of control | dose: 25.0 mg/kg/injection, schedule: Q04DX003 (ip), vehicle: Klucel (hydroxypropylcellulose) (HPC) 92 % of control | dose: 50.0 mg/kg/injection, schedule: Q01DX009 (ip), vehicle: Klucel (hydroxypropylcellulose) (HPC) 94 % of control | dose: 50.0 mg/kg/injection, schedule: Q04DX003 (ip), vehicle: Klucel (hydroxypropylcellulose) (HPC) 92 % of control | [6] 96 % of control | dose: 100.0 mg/kg/injection, schedule: Q04DX003 (ip), vehicle: Klucel (hydroxypropylcellulose) (HPC) 92 % of control | [7] 95 % of control | dose: 200.0 mg/kg/injection, schedule: Q04DX003 (ip), vehicle: Klucel (hydroxypropylcellulose) (HPC) 95 % of control | dose: 400.0 mg/kg/injection, schedule: Q04DX003 (ip), vehicle: Klucel (hydroxypropylcellulose) (HPC) 97 % of control

COc1ccc(C)cc1CCC=O
inactive: [9] 97 % of control | [10] 101 % of control | dose: 400.0 mg/kg/injection, schedule: Q01DX001 (ip), vehicle: saline 95 % of control

CN1CCC=C(CN2c3ccccc3Sc3ccccc32)C1
inactive: dose: 25.0 mg/kg/injection, schedule: Q01DX009 (ip), vehicle: saline 109 % of control | dose: 25.0 mg/kg/injection, schedule: Q04DX003 (ip), vehicle: saline 101 % of control | dose: 50.0 mg/kg/injection, schedule: Q01DX009 (ip), vehicle: saline 119 % of control | [11] 105 % of control | [1] 124 % of control | [2] 103 % of control and 105 % of control

NC(=O)N/N=C1/CC2C3C=CC4C3CC2C14 (centres undefined)
inactive: dose: 37.5 mg/kg/injection, schedule: Q04DX002 (ip), vehicle: saline with Tween-80 117 % of control | dose: 75.0 mg/kg/injection, schedule: Q04DX002 (ip), vehicle: saline with Tween-80 102 % of control | dose: 150.0 mg/kg/injection, schedule: Q04DX002 (ip), vehicle: saline with Tween-80 106 % of control | dose: 300.0 mg/kg/injection, schedule: Q04DX002 (ip), vehicle: saline with Tween-80 98 % of control

O=c1cc[nH]c2c([N+](=O)[O-])cccc12
inactive: [9] 99 % of control | [10] 96 % of control

Cc1ccc(C(=O)C(O)c2ccc(C)cc2)cc1 (centres undefined)
inactive: [6] 98 % of control | [7] 101 % of control | [8] 98 % of control

COc1ccc(C(C)(O)c2cc3ccccc3n2S(=O)(=O)c2ccccc2)cc1 (centres undefined)
inactive: dose: 50.0 mg/kg/injection, schedule: Q04DX002 (ip), vehicle: Klucel (hydroxypropylcellulose) (HPC) 102 % of control | [5] 95 % of control | dose: 200.0 mg/kg/injection, schedule: Q04DX002 (ip), vehicle: Klucel (hydroxypropylcellulose) (HPC) 95 % of control

Cc1cc(C)c2nc(-c3ccc(F)cc3)cc(C(=O)O)c2c1
inactive: [11] 97 % of control | [9] 101 % of control | [2] 97 % of control | [10] 93 % of control | [3] 96 % of control

NC(=S)S.[Zn+2]
inactive: dose: 13.3 mg/kg/injection, schedule: Q01DX Z (ip), vehicle: methylcellulose (MC) 96 % of control | dose: 20.0 mg/kg/injection, schedule: Q01DX Z (ip), vehicle: methylcellulose (MC) 90 % of control | dose: 30.0 mg/kg/injection, schedule: Q01DX Z (ip), vehicle: methylcellulose (MC) 90 % of control

COc1ccc(CN2CCCN(Cc3ccc(OC)cc3)C2c2cc(I)cc(I)c2O)cc1
inactive: dose: 100.0 mg/kg/injection, schedule: Q01DX001 (ip), vehicle: acetone 96 % of control | dose: 200.0 mg/kg/injection, schedule: Q01DX001 (ip), vehicle: acetone 96 % of control | dose: 400.0 mg/kg/injection, schedule: Q01DX001 (ip), vehicle: acetone 94 % of control

CCC(C)(O)CCCC(C)C (centres undefined)
inactive: [2] 97 % of control | [3] 100 % of control | [4] 92 % of control

O=C(Oc1c(Cl)cc(Cl)cc1C=Nc1ccc(Cl)cc1)c1ccccc1
inactive: [6] 103 % of control | [7] 104 % of control | [8] 96 % of control

CC(=O)/C(=C(/C)OB(F)F)C(C)C
inactive: dose: 50.0 mg/kg/injection, schedule: Q01DX001 (ip), vehicle: saline 102 % of control | [9] 104 % of control | [10] 102 % of control

O=[N+]([O-])c1sc2ccccc2c1O
inactive: dose: 12.5 mg/kg/injection, schedule: Q01DX009 (ip), vehicle: saline with Tween-80 99 % of control | dose: 25.0 mg/kg/injection, schedule: Q01DX009 (ip), vehicle: saline with Tween-80 99 % of control

CC(C)/C=N/NP(Br)(c1ccccc1)(c1ccccc1)c1ccccc1
inactive: dose: 75.0 mg/kg/injection, schedule: Q01DX001 (ip), vehicle: carboxymethylcellulose (CMC) 93 % of control | dose: 150.0 mg/kg/injection, schedule: Q01DX001 (ip), vehicle: carboxymethylcellulose (CMC) 95 % of control | dose: 300.0 mg/kg/injection, schedule: Q01DX001 (ip), vehicle: carboxymethylcellulose (CMC) 102 % of control

CCc1c(N)nc(N)nc1Cl
inactive: dose: 25.0 mg/kg/injection, schedule: Q01DX Z (ip), vehicle: methylcellulose (MC) 91 % of control

— PubChem BioAssay AID248 (DTP/NCI, 2004)
